Source: article PMC5762315, “Inhibition of polo-like kinase 4 (PLK4): a new therapeutic option for rhabdoid tumors and pediatric medulloblastoma” (Oncotarget, 2017)
“And” between values parts separate entries of the source, which are not always exact repeats. Equal values may be shown once.

How the values were obtained:
Test in all cases: biochemical
Assay type in all cases: biochemical
various kinases [1] = molecular target: various kinases (Homo sapiens, UniProt P06213); settings: INSR
various kinases [2] = molecular target: T1, various kinases (Homo sapiens, UniProt Q9UHD2); settings: kinase TBK1; ZLYTE
T1 sequence (Q9UHD2 1-729): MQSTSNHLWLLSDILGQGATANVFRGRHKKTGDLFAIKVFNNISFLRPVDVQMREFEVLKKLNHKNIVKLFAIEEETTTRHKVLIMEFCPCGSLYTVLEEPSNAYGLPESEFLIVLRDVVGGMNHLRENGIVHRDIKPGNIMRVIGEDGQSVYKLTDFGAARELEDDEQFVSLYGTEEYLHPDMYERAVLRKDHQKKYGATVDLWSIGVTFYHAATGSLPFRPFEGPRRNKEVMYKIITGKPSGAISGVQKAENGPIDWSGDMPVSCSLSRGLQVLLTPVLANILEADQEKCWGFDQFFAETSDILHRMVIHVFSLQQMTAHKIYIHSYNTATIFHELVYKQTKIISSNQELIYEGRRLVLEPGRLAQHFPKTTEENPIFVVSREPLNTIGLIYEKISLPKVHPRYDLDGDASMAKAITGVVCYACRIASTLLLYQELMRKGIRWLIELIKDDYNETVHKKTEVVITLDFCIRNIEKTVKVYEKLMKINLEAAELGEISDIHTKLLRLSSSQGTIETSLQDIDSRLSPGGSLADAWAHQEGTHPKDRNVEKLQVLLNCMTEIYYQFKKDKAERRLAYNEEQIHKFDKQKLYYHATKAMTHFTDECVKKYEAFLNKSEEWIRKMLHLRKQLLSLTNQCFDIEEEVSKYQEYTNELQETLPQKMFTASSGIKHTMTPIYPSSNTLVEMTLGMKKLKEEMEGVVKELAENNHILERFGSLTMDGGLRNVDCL

various kinases [3] = molecular target: various kinases (Homo sapiens, UniProt Q07002); settings: CDK18/cyclin Y
Chain of various kinases (Homo sapiens, UniProt Q07002) (Q07002 whole entry): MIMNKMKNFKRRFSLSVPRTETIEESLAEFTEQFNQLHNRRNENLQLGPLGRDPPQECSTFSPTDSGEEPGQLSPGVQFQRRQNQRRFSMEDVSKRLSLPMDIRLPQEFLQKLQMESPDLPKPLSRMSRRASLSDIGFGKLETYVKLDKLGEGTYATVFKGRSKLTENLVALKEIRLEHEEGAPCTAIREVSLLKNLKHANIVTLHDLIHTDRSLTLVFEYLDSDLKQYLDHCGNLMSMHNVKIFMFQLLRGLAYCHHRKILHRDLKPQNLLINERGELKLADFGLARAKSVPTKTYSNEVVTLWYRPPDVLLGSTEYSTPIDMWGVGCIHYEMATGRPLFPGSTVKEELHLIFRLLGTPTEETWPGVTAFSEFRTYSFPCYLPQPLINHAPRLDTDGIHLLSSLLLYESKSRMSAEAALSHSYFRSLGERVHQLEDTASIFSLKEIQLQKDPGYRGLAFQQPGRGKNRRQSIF

various kinases [4] = molecular target: various kinases (Homo sapiens, UniProt Q08881); settings: ITK
Chain of various kinases (Homo sapiens, UniProt Q08881) (Q08881 whole entry): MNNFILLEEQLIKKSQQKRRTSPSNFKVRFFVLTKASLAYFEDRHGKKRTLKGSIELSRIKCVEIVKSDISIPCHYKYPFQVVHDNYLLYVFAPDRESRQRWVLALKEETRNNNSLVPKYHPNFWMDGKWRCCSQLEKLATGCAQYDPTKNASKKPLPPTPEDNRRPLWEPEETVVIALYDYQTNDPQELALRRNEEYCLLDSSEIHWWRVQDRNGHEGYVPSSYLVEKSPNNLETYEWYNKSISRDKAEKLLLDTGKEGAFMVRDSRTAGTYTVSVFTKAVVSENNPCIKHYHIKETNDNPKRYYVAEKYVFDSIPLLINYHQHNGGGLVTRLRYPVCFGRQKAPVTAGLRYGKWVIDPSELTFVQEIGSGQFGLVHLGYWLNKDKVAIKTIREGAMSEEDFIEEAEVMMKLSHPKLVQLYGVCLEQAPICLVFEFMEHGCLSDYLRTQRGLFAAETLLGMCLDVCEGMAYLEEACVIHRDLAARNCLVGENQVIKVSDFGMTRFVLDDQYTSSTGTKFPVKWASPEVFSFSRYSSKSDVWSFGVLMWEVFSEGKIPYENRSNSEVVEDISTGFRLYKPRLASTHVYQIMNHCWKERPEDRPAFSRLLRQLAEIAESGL

various kinases [5] = molecular target: various kinases (Homo sapiens, UniProt O75582); settings: kinase RPS6KA5 (MSK1); ZLYTE
Chain of various kinases (Homo sapiens, UniProt O75582) (O75582 whole entry): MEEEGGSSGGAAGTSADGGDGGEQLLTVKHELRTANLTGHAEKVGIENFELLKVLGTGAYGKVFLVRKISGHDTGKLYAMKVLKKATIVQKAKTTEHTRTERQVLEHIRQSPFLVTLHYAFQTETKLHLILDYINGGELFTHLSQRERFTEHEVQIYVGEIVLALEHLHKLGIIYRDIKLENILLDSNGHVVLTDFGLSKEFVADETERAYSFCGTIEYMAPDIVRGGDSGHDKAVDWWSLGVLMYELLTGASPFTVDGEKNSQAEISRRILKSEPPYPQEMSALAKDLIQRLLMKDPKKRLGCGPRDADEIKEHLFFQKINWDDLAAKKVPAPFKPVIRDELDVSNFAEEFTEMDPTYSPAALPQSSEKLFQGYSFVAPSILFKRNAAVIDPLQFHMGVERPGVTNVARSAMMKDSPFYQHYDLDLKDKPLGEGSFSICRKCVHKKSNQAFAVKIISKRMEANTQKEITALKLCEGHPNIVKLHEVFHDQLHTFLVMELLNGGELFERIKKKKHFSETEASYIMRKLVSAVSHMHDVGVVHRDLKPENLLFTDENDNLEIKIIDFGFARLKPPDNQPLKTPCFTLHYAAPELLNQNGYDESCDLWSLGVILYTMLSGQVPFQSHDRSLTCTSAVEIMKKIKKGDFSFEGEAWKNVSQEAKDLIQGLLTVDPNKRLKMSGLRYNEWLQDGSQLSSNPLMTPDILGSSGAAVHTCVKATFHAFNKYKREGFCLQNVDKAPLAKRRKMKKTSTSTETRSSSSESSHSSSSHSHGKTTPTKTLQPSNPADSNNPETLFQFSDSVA

various kinases [6] = molecular target: T2, various kinases (Homo sapiens, UniProt O00141); settings: kinase SGK (SGK1); ZLYTE
T2 sequence (O00141 1-431): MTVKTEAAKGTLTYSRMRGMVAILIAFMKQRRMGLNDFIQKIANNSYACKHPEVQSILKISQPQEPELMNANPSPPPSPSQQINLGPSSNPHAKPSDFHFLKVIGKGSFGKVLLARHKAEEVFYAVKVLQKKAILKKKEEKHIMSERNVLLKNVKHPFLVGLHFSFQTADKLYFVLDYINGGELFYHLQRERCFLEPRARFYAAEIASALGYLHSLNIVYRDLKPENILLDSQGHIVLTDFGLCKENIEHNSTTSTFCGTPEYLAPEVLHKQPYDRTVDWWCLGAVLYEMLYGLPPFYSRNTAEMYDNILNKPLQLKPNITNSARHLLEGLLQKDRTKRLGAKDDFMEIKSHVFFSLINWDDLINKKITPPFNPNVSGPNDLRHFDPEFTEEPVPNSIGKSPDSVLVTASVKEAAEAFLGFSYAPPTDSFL

various kinases [7] = molecular target: T3, various kinases (Homo sapiens, UniProt Q15139); settings: kinase PRKD1 (PKC mu); ZLYTE
T3 sequence (Q15139 1-912): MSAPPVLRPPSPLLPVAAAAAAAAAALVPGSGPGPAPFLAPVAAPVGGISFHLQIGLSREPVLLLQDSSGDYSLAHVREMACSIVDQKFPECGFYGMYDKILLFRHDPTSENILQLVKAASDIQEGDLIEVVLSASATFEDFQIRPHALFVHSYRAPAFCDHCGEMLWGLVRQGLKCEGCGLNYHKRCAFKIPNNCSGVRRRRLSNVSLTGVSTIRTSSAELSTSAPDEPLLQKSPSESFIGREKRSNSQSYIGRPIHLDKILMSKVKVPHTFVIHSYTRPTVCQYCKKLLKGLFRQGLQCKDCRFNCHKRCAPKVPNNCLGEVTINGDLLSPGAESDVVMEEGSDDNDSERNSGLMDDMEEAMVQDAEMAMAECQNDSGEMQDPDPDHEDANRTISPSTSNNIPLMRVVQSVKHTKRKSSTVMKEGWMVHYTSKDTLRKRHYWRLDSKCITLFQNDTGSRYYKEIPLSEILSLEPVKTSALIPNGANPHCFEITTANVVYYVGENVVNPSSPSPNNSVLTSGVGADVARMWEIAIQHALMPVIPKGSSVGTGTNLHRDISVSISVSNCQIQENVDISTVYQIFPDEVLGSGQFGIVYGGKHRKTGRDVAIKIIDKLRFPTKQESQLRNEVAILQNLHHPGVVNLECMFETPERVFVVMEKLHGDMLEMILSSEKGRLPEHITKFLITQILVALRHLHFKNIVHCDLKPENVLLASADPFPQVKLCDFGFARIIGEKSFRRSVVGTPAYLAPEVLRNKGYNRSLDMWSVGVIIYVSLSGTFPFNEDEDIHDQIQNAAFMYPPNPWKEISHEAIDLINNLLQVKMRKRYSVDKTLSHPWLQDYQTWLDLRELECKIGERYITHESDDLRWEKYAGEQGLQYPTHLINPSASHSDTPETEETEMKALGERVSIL

various kinases [8] = molecular target: various kinases (Homo sapiens, UniProt P17948); settings: FLT1 (VEGFR1)
various kinases [9] = molecular target: various kinases (Homo sapiens, UniProt Q8IU85); settings: CAMK1D (CaMKI delta)
Chain of various kinases (Homo sapiens, UniProt Q8IU85) (Q8IU85 whole entry): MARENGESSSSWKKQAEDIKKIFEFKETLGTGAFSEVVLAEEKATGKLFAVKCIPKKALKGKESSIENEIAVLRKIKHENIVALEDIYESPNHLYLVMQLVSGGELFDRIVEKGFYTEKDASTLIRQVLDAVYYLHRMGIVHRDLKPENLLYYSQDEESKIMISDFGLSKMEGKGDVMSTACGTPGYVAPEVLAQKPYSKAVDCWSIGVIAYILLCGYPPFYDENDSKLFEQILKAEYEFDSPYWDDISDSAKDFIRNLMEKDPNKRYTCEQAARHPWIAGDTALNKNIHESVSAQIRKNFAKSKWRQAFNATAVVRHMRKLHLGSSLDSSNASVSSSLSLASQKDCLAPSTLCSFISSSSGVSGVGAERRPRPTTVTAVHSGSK

various kinases [10] = molecular target: various kinases (Homo sapiens, UniProt Q8N752); settings: CSNK1A1L
Chain of various kinases (Homo sapiens, UniProt Q8N752) (Q8N752 whole entry): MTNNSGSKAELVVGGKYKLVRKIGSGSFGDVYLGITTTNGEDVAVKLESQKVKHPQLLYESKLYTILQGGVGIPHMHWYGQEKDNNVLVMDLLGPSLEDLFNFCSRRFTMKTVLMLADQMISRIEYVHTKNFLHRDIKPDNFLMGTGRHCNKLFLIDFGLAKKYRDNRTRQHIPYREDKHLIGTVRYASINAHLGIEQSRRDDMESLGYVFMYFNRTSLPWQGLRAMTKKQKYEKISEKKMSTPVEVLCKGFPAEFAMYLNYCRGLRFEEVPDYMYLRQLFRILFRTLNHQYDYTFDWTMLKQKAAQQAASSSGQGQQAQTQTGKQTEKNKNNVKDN

various kinases [11] = molecular target: various kinases (Homo sapiens, UniProt Q96PY6); settings: NEK1
various kinases [12] = molecular target: various kinases (Homo sapiens, UniProt P11362); settings: FGFR1
various kinases [13] = molecular target: various kinases (Homo sapiens, UniProt Q14164); settings: IKBKE (IKK epsilon)
Chain of various kinases (Homo sapiens, UniProt Q14164) (Q14164 whole entry): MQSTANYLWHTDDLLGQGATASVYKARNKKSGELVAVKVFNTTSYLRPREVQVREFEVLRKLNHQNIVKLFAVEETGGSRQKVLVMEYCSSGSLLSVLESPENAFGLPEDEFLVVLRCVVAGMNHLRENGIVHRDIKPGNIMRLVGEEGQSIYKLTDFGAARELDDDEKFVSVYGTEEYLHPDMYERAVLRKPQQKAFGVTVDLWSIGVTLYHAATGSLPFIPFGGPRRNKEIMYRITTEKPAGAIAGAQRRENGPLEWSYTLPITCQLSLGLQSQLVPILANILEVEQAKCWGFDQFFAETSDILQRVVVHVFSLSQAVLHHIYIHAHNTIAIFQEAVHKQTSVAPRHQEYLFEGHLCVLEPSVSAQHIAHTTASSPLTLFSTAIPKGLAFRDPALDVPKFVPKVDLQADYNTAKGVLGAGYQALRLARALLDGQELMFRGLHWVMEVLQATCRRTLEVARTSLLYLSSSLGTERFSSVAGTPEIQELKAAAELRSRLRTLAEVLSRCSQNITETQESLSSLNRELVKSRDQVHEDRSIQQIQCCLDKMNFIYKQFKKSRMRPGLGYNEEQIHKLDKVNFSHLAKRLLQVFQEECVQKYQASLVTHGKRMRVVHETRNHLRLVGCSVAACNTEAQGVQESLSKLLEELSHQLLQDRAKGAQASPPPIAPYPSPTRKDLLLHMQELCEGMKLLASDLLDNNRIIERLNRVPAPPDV

Chain of various kinases (Homo sapiens, UniProt P06213) (P06213 28-1382): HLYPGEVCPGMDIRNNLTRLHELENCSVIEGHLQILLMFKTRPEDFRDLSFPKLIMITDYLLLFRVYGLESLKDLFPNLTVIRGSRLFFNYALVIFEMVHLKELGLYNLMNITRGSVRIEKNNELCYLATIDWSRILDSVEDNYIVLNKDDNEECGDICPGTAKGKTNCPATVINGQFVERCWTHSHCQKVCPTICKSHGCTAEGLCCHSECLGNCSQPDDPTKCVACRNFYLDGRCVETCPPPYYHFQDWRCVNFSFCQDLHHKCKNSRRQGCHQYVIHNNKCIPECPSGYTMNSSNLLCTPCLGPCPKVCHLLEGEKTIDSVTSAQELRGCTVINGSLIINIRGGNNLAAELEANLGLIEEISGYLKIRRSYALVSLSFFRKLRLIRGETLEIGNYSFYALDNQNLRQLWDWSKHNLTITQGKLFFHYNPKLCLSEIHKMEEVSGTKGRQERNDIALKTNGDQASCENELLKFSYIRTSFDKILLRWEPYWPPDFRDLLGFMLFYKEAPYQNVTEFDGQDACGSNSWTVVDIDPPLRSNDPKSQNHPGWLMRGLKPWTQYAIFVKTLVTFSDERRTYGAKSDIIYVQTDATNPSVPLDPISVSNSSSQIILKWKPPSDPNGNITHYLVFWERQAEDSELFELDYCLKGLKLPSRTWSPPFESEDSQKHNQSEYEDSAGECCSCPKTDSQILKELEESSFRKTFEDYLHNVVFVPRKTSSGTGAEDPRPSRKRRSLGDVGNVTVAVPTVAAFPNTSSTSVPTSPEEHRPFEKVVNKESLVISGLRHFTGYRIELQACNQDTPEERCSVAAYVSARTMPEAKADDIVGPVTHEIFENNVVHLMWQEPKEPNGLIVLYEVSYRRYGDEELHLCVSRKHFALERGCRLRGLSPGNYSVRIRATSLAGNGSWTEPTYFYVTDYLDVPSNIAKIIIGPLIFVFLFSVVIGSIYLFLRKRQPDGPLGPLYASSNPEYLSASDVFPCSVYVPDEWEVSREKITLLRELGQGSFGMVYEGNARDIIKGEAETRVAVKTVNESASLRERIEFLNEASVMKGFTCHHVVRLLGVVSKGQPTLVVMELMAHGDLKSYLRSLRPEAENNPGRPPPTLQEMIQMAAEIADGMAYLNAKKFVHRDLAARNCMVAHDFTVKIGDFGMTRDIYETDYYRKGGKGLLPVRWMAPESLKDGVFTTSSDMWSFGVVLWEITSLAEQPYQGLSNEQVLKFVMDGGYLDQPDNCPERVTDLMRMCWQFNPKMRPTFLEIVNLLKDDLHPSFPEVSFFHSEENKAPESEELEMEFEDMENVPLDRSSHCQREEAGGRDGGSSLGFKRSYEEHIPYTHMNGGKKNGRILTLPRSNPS

COc1ccc2c(c1)[C@]1(C[C@H]1c1ccc3c(/C=C/c4ccc(CN5C[C@@H](C)O[C@@H](C)C5)cc4)n[nH]c3c1)C(=O)N2 [CFI-400945]
% Inhibition (various kinases [1]): 4% and 10%
% Inhibition Average (various kinases [2]): 4%
% Inhibition Duplicate #1 (various kinases [2]): 3%
% Inhibition Duplicate #2 (various kinases [2]): 4%
% Inhibition (various kinases [3]): 5% and 4%
% Inhibition (various kinases [4]): 56% and 53%
IC50 (various kinases [4]): 200 nM
% Inhibition Average (various kinases [5]): 3%
% Inhibition Duplicate #1 (various kinases [5]): 2%
% Inhibition Duplicate #2 (various kinases [5]): 4%
% Inhibition Average (various kinases [6]): 8%
% Inhibition Duplicate #1 (various kinases [6]): 9%
% Inhibition Duplicate #2 (various kinases [6]): 7%
% Inhibition Average (various kinases [7]): 0%
% Inhibition Duplicate #1 (various kinases [7]): -1%
% Inhibition Duplicate #2 (various kinases [7]): 1%
% Inhibition (various kinases [8]): 0% and 1%
% Inhibition (various kinases [9]): -5% and 0%
% Inhibition (various kinases [10]): 2% and 1%
% Inhibition (various kinases [11]): 7% and 2%
% Inhibition (various kinases [12]): 59% and 55%
% Inhibition (various kinases [13]): -1% and 1%
